Results as given in ChEMBL document CHEMBL4145533, “6,7-Dimorpholinoalkoxy quinazoline derivatives as potent EGFR inhibitors with enhanced antiproliferative activities against tumor cells” (Eur J Med Chem, 2018).
Activity calls are given as the source filed them. No cut-off for these calls is given here.

Tests used:
A549 [1] = experiment: Induction of apoptosis in human A549 cells assessed as early apoptotic cells at 4 uM after 48 hrs by Annexin V-FITC/propidium iodide satining based FACS analysis (reference value: 2.78%); type: functional
A549 [2] = experiment: Cell cycle arrest in human A549 cells assessed as accumulation at G0/G1 phase at 1 uM after 48 hrs by propidium iodide satining based FACS analysis (reference value: 48.87%); type: functional
A549 [3] = experiment: Induction of apoptosis in human A549 cells assessed as necrotic cells at 3 uM after 48 hrs by Annexin V-FITC/propidium iodide satining based FACS analysis (reference value: 0.14%); type: functional
A549 [4] = experiment: Cell cycle arrest in human A549 cells assessed as accumulation at G2/M phase at 5 uM after 48 hrs by propidium iodide satining based FACS analysis (reference value: 16.09%); type: functional
[5] = system: Epidermal growth factor receptor (Homo sapiens), P00533 [L858R,T790M]; experiment: Inhibition of EGF-induced EGFR L858R/T790M double mutant phosphorylation at Tyrosine residue in human NCI-H1975 cells preincubated for 2 hrs followed by EGF stimulation measured after 10 mins by Western blot analysis; type: cell-based
A549 [6] = experiment: Cell cycle arrest in human A549 cells assessed as accumulation at G0/G1 phase at 0.5 uM after 48 hrs by propidium iodide satining based FACS analysis (reference value: 48.87%); type: functional
A-431 = experiment: Antiproliferative activity against human A431 cells harboring wild type EGFR after 72 hrs by MTT assay; type: functional, cell-based; details: A-431, 72 h
A549 [7] = experiment: Induction of apoptosis in human A549 cells assessed as necrotic cells at 4 uM after 48 hrs by Annexin V-FITC/propidium iodide satining based FACS analysis (reference value: 0.14%); type: functional
A549 [8] = experiment: Effect on total Erk1/2 protein expression in human A549 cells at 0.2 to 5 uM after 2 hrs by Western blot analysis; type: ADME, cell-based; details: a549, 2 h
A549 [9] = experiment: Induction of apoptosis in human A549 cells assessed as early apoptotic cells at 1 uM after 48 hrs by Annexin V-FITC/propidium iodide satining based FACS analysis (reference value: 2.78%); type: functional
A549 [10] = experiment: Induction of apoptosis in human A549 cells assessed as late apoptotic cells at 1 uM after 48 hrs by Annexin V-FITC/propidium iodide satining based FACS analysis (reference value: 1.21%); type: functional
A549 [11] = experiment: Cell cycle arrest in human A549 cells assessed as accumulation at G2/M phase at 2 uM after 48 hrs by propidium iodide satining based FACS analysis (reference value: 16.09%); type: functional
A549 [12] = experiment: Cell cycle arrest in human A549 cells assessed as accumulation at S phase at 0.5 uM after 48 hrs by propidium iodide satining based FACS analysis (reference value: 34.45%); type: functional
A549 [13] = experiment: Induction of apoptosis in human A549 cells assessed as late apoptotic cells at 2 uM after 48 hrs by Annexin V-FITC/propidium iodide satining based FACS analysis (reference value: 1.21%); type: functional
A549 [14] = experiment: Cell cycle arrest in human A549 cells after 48 hrs by propidium iodide satining based FACS analysis; type: functional
A549 [15] = experiment: Cell cycle arrest in human A549 cells assessed as accumulation at G0/G1 phase at 2 uM after 48 hrs by propidium iodide satining based FACS analysis (reference value: 48.87%); type: functional
A549 [16] = experiment: Cell cycle arrest in human A549 cells assessed as accumulation at S phase at 2 uM after 48 hrs by propidium iodide satining based FACS analysis (reference value: 34.45%); type: functional
[17] = molecular target: Epidermal growth factor receptor (Homo sapiens, UniProt P00533, L858R/T790M); experiment: Inhibition of EGFR L858R/T790M double mutant (unknown origin) using ULight-poly GT as substrate preincubated for 30 mins followed by substrate addition measured after 1 hr by spectrophotometric method
A549 [18] = experiment: Effect on total Akt protein expression in human A549 cells at 0.2 to 5 uM after 2 hrs by Western blot analysis; type: ADME, cell-based; details: a549, 2 h
A549 [19] = experiment: Induction of apoptosis in human A549 cells assessed as necrotic cells at 2 uM after 48 hrs by Annexin V-FITC/propidium iodide satining based FACS analysis (reference value: 0.14%); type: functional
[20] = molecular target: T1, Epidermal growth factor receptor (Homo sapiens, UniProt P00533); details: A549, at 5 µM
Description: Inhibition of EGF-induced EGFR phosphorylation at Y992 residue in human A549 cells at 5 uM preincubated for 2 hrs followed by EGF stimulation measured after 10 mins by Western blot analysis

A549 [21] = experiment: Induction of apoptosis in human A549 cells after 48 hrs by Annexin V-FITC/propidium iodide satining based FACS analysis; type: functional, cell-based
[22] = molecular target: Epidermal growth factor receptor (Homo sapiens, UniProt P00533, L858R); experiment: Inhibition of EGFR L858R mutant (unknown origin) using ULight-poly GT as substrate preincubated for 120 mins followed by substrate addition measured after 2 hrs by spectrophotometric method
A549 [23] = experiment: Cell cycle arrest in human A549 cells assessed as accumulation at S phase at 5 uM after 48 hrs by propidium iodide satining based FACS analysis (reference value: 34.45%); type: functional
[24] = system: Epidermal growth factor receptor (Homo sapiens), P00533 [L858R,T790M]; experiment: Inhibition of EGF-induced EGFR L858R/T790M double mutant phosphorylation at Y1068 residue in human NCI-H1975 cells preincubated for 2 hrs followed by EGF stimulation measured after 10 mins by Western blot analysis; type: cell-based
A549 [25] = experiment: Induction of apoptosis in human A549 cells assessed as viable cells at 1 uM after 48 hrs by Annexin V-FITC/propidium iodide satining based FACS analysis (reference value: 95.87%); type: functional; details: A549, 48 h, read-out: Activity
SW480 = experiment: Antiproliferative activity against human SW480 cells harboring wild type EGFR after 72 hrs by MTT assay; type: functional, cell-based; details: SW480, 72 h
[26] = system: Epidermal growth factor receptor (Homo sapiens), P00533 [L858R,T790M]; experiment: Inhibition of EGF-induced EGFR L858R/T790M double mutant activation in human NCI-H1975 cells assessed as reduction in STAT3 phosphorylation at Y705 residue at 5 uM preincubated for 2 hrs followed by EGF stimulation measured after 10 mins by Western blot analysis; type: cell-based
[27] = molecular target: T1, Epidermal growth factor receptor; experiment: Inhibition of EGF-induced EGFR activation in human A549 cells assessed as reduction in Akt phosphorylation at S473 residue at 0.2 uM preincubated for 2 hrs followed by EGF stimulation measured after 10 mins by Western blot analysis; type: cell-based
A549 [28] = experiment: Induction of apoptosis in human A549 cells assessed as late apoptotic cells at 4 uM after 48 hrs by Annexin V-FITC/propidium iodide satining based FACS analysis (reference value: 1.21%); type: functional
A549 [29] = experiment: Induction of apoptosis in human A549 cells assessed as viable cells at 2 uM after 48 hrs by Annexin V-FITC/propidium iodide satining based FACS analysis (reference value: 95.87%); type: functional; details: A549, 48 h, read-out: Activity
A549 [30] = experiment: Induction of apoptosis in human A549 cells assessed as late apoptotic cells at 3 uM after 48 hrs by Annexin V-FITC/propidium iodide satining based FACS analysis (reference value: 1.21%); type: functional
[31] = molecular target: T1, Epidermal growth factor receptor; experiment: Inhibition of EGF-induced EGFR activation in human A549 cells assessed as reduction in STAT3 phosphorylation at 0.2 to 5 uM preincubated for 2 hrs followed by EGF stimulation measured after 10 mins by Western blot analysis; type: cell-based

T1 sequence (P00533 whole entry): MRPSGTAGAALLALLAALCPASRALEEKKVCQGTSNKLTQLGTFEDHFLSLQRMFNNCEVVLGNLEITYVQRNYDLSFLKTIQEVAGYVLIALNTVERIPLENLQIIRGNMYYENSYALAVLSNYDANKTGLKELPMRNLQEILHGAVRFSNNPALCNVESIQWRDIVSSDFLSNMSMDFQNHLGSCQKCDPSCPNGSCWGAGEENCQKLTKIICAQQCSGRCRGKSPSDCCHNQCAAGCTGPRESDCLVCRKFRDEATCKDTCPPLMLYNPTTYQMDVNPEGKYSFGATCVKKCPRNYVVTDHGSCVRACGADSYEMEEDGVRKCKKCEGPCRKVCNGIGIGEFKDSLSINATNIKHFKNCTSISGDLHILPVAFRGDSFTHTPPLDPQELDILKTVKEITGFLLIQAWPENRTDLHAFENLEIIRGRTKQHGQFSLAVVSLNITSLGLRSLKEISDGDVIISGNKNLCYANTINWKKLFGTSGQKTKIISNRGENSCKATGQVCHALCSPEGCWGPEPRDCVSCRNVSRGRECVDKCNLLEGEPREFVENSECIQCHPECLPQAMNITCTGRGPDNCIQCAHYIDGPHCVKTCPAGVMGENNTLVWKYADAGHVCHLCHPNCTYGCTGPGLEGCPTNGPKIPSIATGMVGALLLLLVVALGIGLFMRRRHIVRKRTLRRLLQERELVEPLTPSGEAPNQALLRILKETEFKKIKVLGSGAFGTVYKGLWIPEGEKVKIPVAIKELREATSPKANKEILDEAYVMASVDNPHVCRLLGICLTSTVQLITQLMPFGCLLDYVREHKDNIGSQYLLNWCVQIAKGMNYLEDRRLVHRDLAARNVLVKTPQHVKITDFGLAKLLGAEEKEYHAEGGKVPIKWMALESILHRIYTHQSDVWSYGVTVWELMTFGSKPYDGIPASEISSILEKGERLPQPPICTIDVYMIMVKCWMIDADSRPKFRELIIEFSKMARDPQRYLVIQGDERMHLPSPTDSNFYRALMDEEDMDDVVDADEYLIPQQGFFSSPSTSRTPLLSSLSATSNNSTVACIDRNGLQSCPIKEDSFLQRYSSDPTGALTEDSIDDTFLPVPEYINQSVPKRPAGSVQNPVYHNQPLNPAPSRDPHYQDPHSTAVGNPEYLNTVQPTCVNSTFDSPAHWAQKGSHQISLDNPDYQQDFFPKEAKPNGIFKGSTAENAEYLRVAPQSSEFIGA
Chain of Epidermal growth factor receptor (Homo sapiens), P00533 [L858R,T790M] (P00533 whole entry T790M/L858R, looked up): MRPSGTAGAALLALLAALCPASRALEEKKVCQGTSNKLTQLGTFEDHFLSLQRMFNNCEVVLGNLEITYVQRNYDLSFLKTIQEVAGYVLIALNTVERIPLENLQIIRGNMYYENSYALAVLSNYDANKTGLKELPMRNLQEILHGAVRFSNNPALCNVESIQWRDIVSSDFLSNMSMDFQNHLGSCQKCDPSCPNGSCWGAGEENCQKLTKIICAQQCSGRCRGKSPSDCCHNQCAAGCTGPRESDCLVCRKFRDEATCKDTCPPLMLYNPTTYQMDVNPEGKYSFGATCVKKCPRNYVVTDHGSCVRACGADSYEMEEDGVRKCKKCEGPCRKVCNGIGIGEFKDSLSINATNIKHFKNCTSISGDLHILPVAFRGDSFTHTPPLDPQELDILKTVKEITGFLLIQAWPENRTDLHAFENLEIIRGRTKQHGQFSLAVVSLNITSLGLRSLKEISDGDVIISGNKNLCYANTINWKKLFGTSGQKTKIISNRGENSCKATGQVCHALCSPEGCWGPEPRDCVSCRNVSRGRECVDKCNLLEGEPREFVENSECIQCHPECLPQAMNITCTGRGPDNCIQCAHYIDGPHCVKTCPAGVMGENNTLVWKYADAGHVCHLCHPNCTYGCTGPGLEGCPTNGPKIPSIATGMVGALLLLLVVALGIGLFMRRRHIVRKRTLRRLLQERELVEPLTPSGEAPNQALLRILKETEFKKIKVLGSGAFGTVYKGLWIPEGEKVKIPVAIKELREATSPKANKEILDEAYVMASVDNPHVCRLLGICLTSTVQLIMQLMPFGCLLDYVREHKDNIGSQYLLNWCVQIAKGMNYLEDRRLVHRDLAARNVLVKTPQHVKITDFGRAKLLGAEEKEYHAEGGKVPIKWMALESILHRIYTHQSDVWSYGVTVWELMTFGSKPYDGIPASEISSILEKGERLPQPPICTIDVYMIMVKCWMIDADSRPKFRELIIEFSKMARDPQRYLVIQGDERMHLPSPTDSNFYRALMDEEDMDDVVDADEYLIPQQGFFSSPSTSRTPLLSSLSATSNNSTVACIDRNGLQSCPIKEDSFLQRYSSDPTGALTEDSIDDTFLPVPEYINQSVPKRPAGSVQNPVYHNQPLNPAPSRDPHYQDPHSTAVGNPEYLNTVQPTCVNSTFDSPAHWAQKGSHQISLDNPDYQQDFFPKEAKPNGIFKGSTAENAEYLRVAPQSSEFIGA
Chain of Epidermal growth factor receptor (Homo sapiens, UniProt P00533, L858R) (P00533 25-1210 L858R limits assumed): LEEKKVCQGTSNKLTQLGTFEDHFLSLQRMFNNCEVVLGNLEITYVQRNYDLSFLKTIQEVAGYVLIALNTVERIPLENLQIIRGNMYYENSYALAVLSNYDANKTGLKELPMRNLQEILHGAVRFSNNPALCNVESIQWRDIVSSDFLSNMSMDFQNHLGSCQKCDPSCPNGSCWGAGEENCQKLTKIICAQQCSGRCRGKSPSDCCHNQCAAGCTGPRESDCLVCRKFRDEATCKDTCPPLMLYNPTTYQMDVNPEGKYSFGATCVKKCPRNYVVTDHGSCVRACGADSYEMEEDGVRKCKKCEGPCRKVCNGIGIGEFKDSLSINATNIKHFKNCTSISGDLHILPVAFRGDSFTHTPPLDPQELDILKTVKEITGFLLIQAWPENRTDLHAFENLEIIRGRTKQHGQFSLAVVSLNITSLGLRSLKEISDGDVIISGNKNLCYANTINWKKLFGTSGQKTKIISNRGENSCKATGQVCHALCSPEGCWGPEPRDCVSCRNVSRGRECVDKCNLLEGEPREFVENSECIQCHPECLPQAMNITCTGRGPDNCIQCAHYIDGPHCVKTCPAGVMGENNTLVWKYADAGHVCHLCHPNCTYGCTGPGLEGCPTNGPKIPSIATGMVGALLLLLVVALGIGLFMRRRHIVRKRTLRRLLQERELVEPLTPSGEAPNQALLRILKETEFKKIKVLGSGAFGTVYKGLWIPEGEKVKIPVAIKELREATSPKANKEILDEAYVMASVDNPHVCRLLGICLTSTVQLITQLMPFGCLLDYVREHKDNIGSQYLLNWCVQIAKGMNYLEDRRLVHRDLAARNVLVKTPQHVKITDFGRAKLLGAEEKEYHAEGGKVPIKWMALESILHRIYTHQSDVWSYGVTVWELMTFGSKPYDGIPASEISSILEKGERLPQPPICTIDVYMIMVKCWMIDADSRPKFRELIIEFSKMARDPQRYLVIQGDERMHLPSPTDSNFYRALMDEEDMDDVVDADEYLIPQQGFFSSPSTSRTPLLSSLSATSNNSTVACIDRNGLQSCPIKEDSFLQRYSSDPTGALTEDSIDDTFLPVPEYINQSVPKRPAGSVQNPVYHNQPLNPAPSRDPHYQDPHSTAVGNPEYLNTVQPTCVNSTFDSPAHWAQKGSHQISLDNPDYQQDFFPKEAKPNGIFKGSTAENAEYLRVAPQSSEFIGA
Chain of Epidermal growth factor receptor (Homo sapiens, UniProt P00533, L858R/T790M) (P00533 25-1210 T790M/L858R limits assumed): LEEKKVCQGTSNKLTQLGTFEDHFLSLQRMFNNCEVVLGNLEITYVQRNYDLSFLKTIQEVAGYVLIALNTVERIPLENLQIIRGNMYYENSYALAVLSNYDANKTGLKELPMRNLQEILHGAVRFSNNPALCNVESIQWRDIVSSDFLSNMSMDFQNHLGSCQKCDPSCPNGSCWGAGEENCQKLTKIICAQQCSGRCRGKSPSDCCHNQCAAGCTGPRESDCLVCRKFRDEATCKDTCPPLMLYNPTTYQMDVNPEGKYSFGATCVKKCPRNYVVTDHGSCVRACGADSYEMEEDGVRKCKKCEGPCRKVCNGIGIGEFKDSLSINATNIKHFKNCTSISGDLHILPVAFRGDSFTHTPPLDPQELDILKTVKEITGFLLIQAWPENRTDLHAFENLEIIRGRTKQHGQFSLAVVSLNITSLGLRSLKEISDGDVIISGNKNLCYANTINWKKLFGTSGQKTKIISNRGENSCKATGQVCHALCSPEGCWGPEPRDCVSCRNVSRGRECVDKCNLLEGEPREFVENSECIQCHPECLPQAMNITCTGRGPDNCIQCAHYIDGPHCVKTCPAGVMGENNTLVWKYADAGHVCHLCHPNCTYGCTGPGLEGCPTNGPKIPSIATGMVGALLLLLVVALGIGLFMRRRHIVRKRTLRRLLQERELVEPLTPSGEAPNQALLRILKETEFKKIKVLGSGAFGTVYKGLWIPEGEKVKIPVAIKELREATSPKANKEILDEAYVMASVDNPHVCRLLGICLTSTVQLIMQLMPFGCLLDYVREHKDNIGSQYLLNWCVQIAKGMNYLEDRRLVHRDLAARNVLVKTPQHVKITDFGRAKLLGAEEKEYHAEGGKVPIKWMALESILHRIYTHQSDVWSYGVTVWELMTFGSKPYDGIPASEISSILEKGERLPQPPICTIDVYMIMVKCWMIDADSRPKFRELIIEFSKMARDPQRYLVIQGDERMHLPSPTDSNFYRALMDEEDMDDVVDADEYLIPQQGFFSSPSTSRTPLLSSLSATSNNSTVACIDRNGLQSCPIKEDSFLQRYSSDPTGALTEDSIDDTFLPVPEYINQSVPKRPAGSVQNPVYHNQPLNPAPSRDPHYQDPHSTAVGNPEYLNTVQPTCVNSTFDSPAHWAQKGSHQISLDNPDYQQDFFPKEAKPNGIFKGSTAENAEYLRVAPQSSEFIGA

inhibition [5]: Dose-dependent effect | IC50 (A-431): 1.31 µM | IC50 [17]: > 2 µM | inhibition [20]: Active | IC50 [22]: 0.323 µM | inhibition [24]: Dose-dependent effect | IC50 (SW480): 3.27 µM | inhibition [26]: inactive | inhibition [27]: Active | inhibition [31]: inactive
SMILES: Fc1cccc(COc2ccc(Nc3ncnc4cc(OCCCN5CCOCC5)c(OCCCN5CCOCC5)cc34)cc2Cl)c1
Activity (A549 [1]): 14.81% | Activity (A549 [2]): 52.91% | Activity (A549 [3]): 0.23% | Activity (A549 [4]): 8.8% | Activity (A549 [6]): 50.78% | Activity (A549 [7]): 0.57% | Activity (A549 [8]): Non-Toxic | Activity (A549 [9]): 3.9% | Activity (A549 [10]): 3.43% | Activity (A549 [11]): 10.56% | Activity (A549 [12]): 33.8% | Activity (A549 [13]): 7.37% | Activity (A549 [14]): Dose-dependent effect | Activity (A549 [15]): 58.45% | Activity (A549 [16]): 30.54% | Activity (A549 [18]): Non-Toxic | Activity (A549 [19]): 0.31% | Activity (A549 [21]): Dose-dependent effect | Activity (A549 [23]): 17.61% | viability at 1 µM (A549 [25]): 92.3% | Activity (A549 [28]): 36.18% | viability at 2 µM (A549 [29]): 87.9% | Activity (A549 [30]): 8.5%
